The source made the active and inactive calls. No cut-off for these calls is given here.
What was measured:
HCT-116 = experiment: Antiproliferative activity against human HCT-116 cells assessed as inhibition of cell growth measured after 72 hrs by […]; type: functional
[1] = Antiproliferative activity against human KB-VIN cells assessed as inhibition of cell growth measured after 72 hrs by SRB assay; type: functional; conditions: KBVIN
KB = experiment: Antiproliferative activity against human KB cells assessed as inhibition of cell growth measured after 72 hrs by SRB assay; type: functional
[2] = target: CDK8/Cyclin C (Homo sapiens) (UniProt P49336+P24863); experiment: Inhibition of CDK8/Cyclin C (unknown origin) at 10 uM measured after 1 hr by plate reader assay relative to control; type: protein-complex assay
CDK8/Cyclin C = CDK8/Cyclin C (Homo sapiens, UniProt P49336); experiment: Inhibition of CDK8/Cyclin C (unknown origin) measured after 1 hr by plate reader assay; type: protein-complex assay
A549 = experiment: Antiproliferative activity against human A549 cells assessed as inhibition of cell growth measured after 72 hrs by SRB assay; type: functional
MCF7 = experiment: Antiproliferative activity against human MCF7 cells assessed as inhibition of cell growth measured after 72 hrs by SRB assay; type: functional
MDA-MB-231 = experiment: Antiproliferative activity against human MDA-MB-231 cells assessed as inhibition of cell growth measured after 72 hrs by SRB assay; type: functional
[3] = target: Cyclin-dependent kinase 8 (Homo sapiens) (UniProt P49336); experiment: Inhibition of CDK8 (unknown origin) at 10 uM
Sequence of Cyclin-dependent kinase 8 (Homo sapiens) (P49336 whole entry): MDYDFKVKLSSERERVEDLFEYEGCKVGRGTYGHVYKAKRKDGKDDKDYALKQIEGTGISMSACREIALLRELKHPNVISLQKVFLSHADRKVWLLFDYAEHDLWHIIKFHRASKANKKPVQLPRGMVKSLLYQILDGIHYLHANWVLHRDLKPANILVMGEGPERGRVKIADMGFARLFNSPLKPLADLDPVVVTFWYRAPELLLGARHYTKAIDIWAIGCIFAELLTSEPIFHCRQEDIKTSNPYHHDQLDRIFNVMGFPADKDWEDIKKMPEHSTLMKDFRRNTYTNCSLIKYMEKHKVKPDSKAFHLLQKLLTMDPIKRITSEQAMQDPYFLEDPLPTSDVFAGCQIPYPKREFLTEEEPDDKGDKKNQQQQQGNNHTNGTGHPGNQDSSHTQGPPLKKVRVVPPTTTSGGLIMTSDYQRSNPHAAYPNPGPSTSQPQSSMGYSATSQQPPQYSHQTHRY

Sequence of CDK8/Cyclin C (P49336 whole entry): as above
Sequence of CDK8/Cyclin C (P24863 whole entry, further chain): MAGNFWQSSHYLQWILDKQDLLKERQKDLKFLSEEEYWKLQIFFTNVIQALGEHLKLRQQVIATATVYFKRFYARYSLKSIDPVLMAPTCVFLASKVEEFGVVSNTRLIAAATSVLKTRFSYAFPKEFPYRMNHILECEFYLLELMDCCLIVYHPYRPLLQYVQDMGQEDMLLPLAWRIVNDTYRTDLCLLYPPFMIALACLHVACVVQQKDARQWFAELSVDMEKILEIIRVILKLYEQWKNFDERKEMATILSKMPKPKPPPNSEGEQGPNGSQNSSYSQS

SMILES	GI50 (HCT-116) [µM]	GI50 [1] [µM]	GI50 (KB) [µM]	inhibition [2] [%]	IC50 (CDK8/Cyclin C) [µM]	GI50 (A549) [µM]	GI50 (MCF7) [µM]	GI50 (MDA-MB-231) [µM]	inhibition [3]
CNC(=O)CCc1ccncc1-c1ccc2ccccc2c1	19.3	7.47	> 10	100	0.0211	10.4	> 10	8.98	–
O=C(/C=C/c1ccncc1-c1ccc2ccccc2c1)N1CCOCC1	6.04	8.48	> 10	99	0.0603	8.41	> 10	8.98	Active
Cn1ccc2cc(-c3cnccc3/C=C/C(=O)N3CCOCC3)ccc21	–	–	–	97	0.247	–	–	–	–
CNC(=O)/C=C/c1ccncc1-c1ccc2[nH]ccc2c1	> 30	> 10	> 10	100	0.0519	> 10	> 10	> 10	Active
Cn1ncc2cc(-c3cnccc3/C=C/C(=O)O)ccc21	> 30	> 10	> 10	102	0.0346	> 10	> 10	> 10	–
O=C(O)CCc1ccncc1-c1ccc2ccccc2c1	> 30	> 10	> 10	101	0.0505	> 10	> 10	> 10	–
CCOC(=O)/C=C/c1ccncc1-c1ccc2ccccc2c1	0.91	8.89	> 10	102	0.0533	5.38	8.32	8.09	Active
NC(=O)/C=C/c1ccncc1-c1ccc2ccccc2c1	12.1	> 10	> 10	102	0.0105	> 10	> 10	> 10	–
CNC(=O)/C=C/c1ccncc1-c1ccc2cccnc2c1	–	–	–	82	1.76	–	–	–	–
NC(=O)/C=C/c1ccncc1Br	–	–	–	81	2.42	–	–	–	–
O=C(O)COc1ccncc1-c1ccc2ccccc2c1	–	–	–	16	–	–	–	–	–
COC1CN(C(=O)/C=C/c2ccncc2-c2ccc3ccccc3c2)C1	> 30	> 10	> 10	100	0.0428	> 10	> 10	> 10	Active
CNC(=O)/C=C/c1ccncc1-c1ccc2c(cnn2C)c1	3.48	> 10	> 10	98	0.0867	> 10	> 10	> 10	Active
CCOC(=O)/C=C/c1ccncc1-c1ccc2c(ccn2C)c1	0.21	8.19	6.25	100	0.144	1.72	8.67	10.2	–
O=C(COc1ccncc1-c1ccc2ccccc2c1)N1CCOCC1	–	–	–	9	–	–	–	–	–
CN1CCN(c2ccc(Nc3cnccc3/C=C/C(N)=O)cc2)CC1	–	–	–	75	–	–	–	–	–
Cn1ncc2cc(-c3cnccc3/C=C/C(=O)N3CCOCC3)ccc21	–	–	–	95	0.356	–	–	–	–
NC(=O)/C=C/c1ccncc1Nc1ccc(F)cc1	–	–	–	70	–	–	–	–	–
O=C(O)/C=C/c1ccncc1-c1ccc2[nH]ccc2c1	> 30	> 10	> 10	102	0.017	> 10	> 10	> 10	–
CC(C)[C@@H](NC(=O)/C=C/c1ccncc1-c1ccc2ccccc2c1)C(=O)O	–	–	–	77	–	–	–	–	–
NNC(=O)CCc1ccncc1-c1ccc2ccccc2c1	> 30	> 10	> 10	102	0.0077	> 10	> 10	> 10	–
CCOC(=O)/C=C/c1ccncc1-c1ccc2[nH]ccc2c1	4.83	> 10	> 10	100	0.107	7.44	> 10	> 10	–
CNC(=O)COc1ccncc1-c1ccc2ccccc2c1	–	–	–	4	–	–	–	–	–
CNC(=O)/C=C/c1ccncc1-c1ccc2c(ccn2C)c1	4.45	5.69	7.08	99	0.0776	6.45	7.12	8.55	Active
O=C(/C=C/c1ccncc1-c1ccc2[nH]ccc2c1)N1CCOCC1	–	–	–	97	0.19	–	–	–	–
